Experimental data as given in ChEMBL document CHEMBL3525973, “Quantitative prediction of human intestinal glucuronidation effects on intestinal availability of UDP-glucuronosyltransferase substrates using in vitro data” (Drug Metab Dispos, 2012).

Tests used:
[1] = Unbound fraction during UGT-mediated glucuronidation in human intestinal microsomes
[2] = Intrinsic clearance in human intestinal microsomes assessed UGT-mediated glucuronidation clearance
[3] = Unbound intrinsic clearance in human intestinal microsomes assessed UGT-mediated glucuronidation clearance
[4] = biological target: T1, UDP-glucuronosyltransferase 1A1 (Homo sapiens, UniProt P22309); assay: Activity of human UGT1A1 expressed in insect cells assessed as reduction in compound level after 30 mins; assay type: ADME; conditions: 0.5 h
T1 sequence (P22309 whole entry): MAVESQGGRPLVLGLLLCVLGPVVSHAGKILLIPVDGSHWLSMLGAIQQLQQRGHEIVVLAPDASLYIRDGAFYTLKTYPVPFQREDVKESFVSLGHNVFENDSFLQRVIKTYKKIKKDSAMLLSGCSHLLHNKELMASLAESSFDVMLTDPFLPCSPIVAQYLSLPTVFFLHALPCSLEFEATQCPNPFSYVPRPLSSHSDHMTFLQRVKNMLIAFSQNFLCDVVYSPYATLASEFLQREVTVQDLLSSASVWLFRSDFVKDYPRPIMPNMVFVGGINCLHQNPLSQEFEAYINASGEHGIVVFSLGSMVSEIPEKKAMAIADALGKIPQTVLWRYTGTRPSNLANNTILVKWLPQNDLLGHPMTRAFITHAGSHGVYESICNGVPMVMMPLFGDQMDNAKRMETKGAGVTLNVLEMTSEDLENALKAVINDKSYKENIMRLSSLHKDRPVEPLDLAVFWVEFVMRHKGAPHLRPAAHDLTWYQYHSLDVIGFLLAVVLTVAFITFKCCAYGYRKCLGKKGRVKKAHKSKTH

[5] = biological target: T2, UDP-glucuronosyltransferase 1A7 (Homo sapiens, UniProt Q9HAW7); assay: Activity of human UGT1A7 expressed in insect cells assessed as reduction in compound level after 30 mins; assay type: ADME; conditions: 0.5 h
T2 sequence (Q9HAW7 whole entry): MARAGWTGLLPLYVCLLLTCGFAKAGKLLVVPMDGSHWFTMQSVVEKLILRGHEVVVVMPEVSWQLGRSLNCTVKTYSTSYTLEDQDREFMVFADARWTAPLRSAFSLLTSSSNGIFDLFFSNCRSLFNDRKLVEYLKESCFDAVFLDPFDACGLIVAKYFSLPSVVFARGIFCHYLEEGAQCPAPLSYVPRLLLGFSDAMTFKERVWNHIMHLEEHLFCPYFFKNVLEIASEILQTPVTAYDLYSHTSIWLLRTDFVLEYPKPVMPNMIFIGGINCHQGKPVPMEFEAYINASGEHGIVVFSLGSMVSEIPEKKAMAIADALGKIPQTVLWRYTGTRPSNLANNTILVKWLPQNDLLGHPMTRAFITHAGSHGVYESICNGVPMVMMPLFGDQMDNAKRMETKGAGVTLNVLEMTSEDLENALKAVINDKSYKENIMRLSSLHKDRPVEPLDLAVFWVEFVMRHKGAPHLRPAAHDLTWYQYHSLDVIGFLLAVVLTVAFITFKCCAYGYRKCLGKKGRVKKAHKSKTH

[6] = biological target: T3, UDP-glucuronosyltransferase 1A9 (Homo sapiens, UniProt O60656); assay: Activity of human UGT1A9 expressed in insect cells assessed as reduction in compound level after 30 mins; assay type: ADME; conditions: 0.5 h
T3 sequence (O60656 whole entry): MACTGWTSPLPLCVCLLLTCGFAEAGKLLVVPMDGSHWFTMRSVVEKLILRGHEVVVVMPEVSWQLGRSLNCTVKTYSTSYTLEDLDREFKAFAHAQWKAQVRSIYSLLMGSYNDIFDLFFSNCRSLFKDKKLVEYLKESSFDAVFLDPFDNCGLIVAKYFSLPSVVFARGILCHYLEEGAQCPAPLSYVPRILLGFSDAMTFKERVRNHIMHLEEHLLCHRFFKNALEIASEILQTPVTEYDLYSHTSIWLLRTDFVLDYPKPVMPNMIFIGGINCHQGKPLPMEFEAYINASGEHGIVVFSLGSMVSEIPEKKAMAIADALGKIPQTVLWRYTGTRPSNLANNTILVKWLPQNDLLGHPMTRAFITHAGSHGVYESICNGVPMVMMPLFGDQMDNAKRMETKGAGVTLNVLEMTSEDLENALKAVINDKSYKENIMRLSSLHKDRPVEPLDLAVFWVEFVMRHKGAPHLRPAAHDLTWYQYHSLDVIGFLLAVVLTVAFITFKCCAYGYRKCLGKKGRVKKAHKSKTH

[7] = biological target: T4, UDP-glucuronosyltransferase 2B7 (Homo sapiens, UniProt P16662); assay: Activity of human UGT2B7 expressed in insect cells assessed as reduction in compound level after 30 mins; assay type: ADME; conditions: 0.5 h
T4 sequence (P16662 whole entry): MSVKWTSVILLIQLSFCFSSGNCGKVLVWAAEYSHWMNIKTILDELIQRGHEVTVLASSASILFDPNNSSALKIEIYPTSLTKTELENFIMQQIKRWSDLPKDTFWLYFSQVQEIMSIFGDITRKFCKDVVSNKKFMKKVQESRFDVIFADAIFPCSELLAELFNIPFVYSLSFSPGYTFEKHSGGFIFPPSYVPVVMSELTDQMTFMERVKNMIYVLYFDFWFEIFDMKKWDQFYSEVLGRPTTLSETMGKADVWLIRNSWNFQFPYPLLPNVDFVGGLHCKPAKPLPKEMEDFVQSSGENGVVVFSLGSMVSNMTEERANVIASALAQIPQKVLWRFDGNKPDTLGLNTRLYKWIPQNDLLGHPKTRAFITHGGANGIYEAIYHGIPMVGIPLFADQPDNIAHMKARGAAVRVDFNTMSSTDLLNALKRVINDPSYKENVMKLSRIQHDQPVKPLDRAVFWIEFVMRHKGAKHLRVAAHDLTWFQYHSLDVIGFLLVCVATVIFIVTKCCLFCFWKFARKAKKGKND

[8] = biological target: T5, UDP-glucuronosyltransferase 2B15 (Homo sapiens, UniProt P54855); assay: Activity of human UGT2B15 expressed in insect cells assessed as reduction in compound level after 30 mins; assay type: ADME; conditions: 0.5 h
T5 sequence (P54855 whole entry): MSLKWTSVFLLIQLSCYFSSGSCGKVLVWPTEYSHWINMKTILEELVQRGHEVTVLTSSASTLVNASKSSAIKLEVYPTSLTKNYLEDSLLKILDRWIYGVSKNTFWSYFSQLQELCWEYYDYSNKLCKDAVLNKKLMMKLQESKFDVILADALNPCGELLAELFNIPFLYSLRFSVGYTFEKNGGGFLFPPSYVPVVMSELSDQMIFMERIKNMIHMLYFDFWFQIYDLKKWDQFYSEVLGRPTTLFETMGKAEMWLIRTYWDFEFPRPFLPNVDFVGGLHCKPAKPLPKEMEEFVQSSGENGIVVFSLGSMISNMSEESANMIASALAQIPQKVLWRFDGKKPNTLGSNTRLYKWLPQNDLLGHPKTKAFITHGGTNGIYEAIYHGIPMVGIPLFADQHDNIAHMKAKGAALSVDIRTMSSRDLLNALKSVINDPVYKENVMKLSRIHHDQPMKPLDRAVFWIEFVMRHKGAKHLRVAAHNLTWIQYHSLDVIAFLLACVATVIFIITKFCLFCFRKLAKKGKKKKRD

[9] = Apparent permeability by PAMPA method
clinical = conditions: human, in vivo
in vitro = conditions: human, blood and plasma
Description: Ratio of drug level in blood to plasma in human

[10] = Intrinsic clearance in human intestinal microsomes assessed CYP450-mediated glucuronidation clearance; conditions: microsomes
[11] = Unbound intrinsic clearance in human intestinal microsomes assessed CYP450-mediated glucuronidation clearance
[12] = Bioavailability in human; assay type: ADME, organism-based; conditions: in vivo

Structure (SMILES): Cc1c(Cl)cccc1Nc1ccccc1C(=O)O [TOLFENAMIC ACID]
- fraction unbound ([1]; intestinal microsomes): 0.88
- microsomal CLint ([2]; intestinal microsomes): 155 µL/min/mg
- CL free [3]: 176 µL/min/mg
- Drug metabolism [4]: metabolite_detected
- Drug metabolism [5]: metabolite_detected
- Drug metabolism [6]: metabolite_detected
- Drug metabolism [7]: metabolite_detected
- Drug metabolism [8]: metabolite_detected
- Papp [9]: 14 ×10⁻⁶ cm/s
- clearance (clinical): 2.2 mL/min/kg
- blood plasma ratio (in vitro): 0.66

Structure (SMILES): Cc1ccc(C)c(OCCCC(C)(C)C(=O)O)c1 [GEMFIBROZIL]
- fraction unbound ([1]; microsomes): 0.97
- microsomal CLint ([2]; microsomes): 17 µL/min/mg
- CL free [3]: 17.5 µL/min/mg
- CL [10]: metabolite_not_detected
- CL free [11]: metabolite_not_detected
- Drug metabolism [7]: metabolite_detected
- bioavailability [12]: 100%
- Papp [9]: < 0.1 ×10⁻⁶ cm/s
- blood plasma ratio (in vitro): 0.58
